Data as given in PubChem BioAssay AID504400 (The Scripps Research Institute Molecular Screening Center, 2011).
Activity calls are given as the source filed them. The rule behind the calls is not given here.

How the values were obtained:
Test in all cases: CYP450 and receptor off-target profile – biochemical, Ricerca HitProfilingScreen, selectivity assay for S1P4 agonist project, late-stage follow-up (AID 504400)
[1] = target: 5-hydroxytryptamine receptor 2B (Homo sapiens) (UniProt P41595); details: Ricerca radioligand binding/enzyme panel plus CYP450; Serotonin (5-Hydroxytryptamine) 5-HT2B; at 10 µM; active compounds read high
Sequence of 5-hydroxytryptamine receptor 2B (Homo sapiens) (P41595 whole entry, looked up): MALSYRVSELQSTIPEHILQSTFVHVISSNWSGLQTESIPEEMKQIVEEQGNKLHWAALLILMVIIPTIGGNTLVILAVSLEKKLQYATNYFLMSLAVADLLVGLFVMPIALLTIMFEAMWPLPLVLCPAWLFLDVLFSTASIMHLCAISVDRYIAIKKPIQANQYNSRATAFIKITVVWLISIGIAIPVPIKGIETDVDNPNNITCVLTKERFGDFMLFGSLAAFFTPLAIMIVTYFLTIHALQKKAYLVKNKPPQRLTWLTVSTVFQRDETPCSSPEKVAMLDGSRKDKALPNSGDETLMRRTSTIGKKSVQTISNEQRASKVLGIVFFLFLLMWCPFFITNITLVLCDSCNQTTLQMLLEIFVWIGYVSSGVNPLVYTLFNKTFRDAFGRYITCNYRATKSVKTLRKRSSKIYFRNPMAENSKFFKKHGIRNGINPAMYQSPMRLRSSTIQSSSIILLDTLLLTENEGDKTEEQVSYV

Adenosine A1 = details: Ricerca radioligand binding/enzyme panel plus CYP450, at 10 µM, active compounds read high
Adenosine A2A = details: Ricerca radioligand binding/enzyme panel plus CYP450, at 10 µM, active compounds read high
Adrenergic alpha1A = details: Ricerca radioligand binding/enzyme panel plus CYP450, at 10 µM, active compounds read high
Adrenergic alpha1B = details: Ricerca radioligand binding/enzyme panel plus CYP450, at 10 µM, active compounds read high
Adrenergic beta1 = details: Ricerca radioligand binding/enzyme panel plus CYP450, at 10 µM, active compounds read high
[2] = target: Alpha-2A adrenergic receptor (Homo sapiens) (UniProt P08913); details: Ricerca radioligand binding/enzyme panel plus CYP450; Adrenergic alpha2A; at 10 µM; active compounds read high
Sequence of Alpha-2A adrenergic receptor (Homo sapiens) (P08913 whole entry, looked up): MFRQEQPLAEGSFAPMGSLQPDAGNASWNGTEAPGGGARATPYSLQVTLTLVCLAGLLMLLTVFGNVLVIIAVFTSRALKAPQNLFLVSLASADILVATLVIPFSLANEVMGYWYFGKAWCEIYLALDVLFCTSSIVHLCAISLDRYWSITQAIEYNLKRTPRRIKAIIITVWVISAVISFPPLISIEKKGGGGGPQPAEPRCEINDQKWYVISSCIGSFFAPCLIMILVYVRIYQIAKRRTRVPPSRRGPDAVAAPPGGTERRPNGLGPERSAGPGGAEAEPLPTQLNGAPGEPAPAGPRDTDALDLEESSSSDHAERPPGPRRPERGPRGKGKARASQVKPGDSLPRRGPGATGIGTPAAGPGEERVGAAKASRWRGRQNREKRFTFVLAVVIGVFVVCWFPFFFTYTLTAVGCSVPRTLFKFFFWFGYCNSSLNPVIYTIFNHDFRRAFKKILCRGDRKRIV

[3] = system: Alpha-2A adrenergic receptor (Homo sapiens) + Histamine H1 receptor (Homo sapiens) + Mu-type opioid receptor (Homo sapiens); details: Ricerca radioligand binding/enzyme panel plus CYP450; at 10 µM; active compounds read high
[4] = target: Beta-2 adrenergic receptor (Homo sapiens) (UniProt P07550); details: Ricerca radioligand binding/enzyme panel plus CYP450; Adrenergic beta2; at 10 µM; active compounds read high
Sequence of Beta-2 adrenergic receptor (Homo sapiens) (P07550 whole entry, looked up): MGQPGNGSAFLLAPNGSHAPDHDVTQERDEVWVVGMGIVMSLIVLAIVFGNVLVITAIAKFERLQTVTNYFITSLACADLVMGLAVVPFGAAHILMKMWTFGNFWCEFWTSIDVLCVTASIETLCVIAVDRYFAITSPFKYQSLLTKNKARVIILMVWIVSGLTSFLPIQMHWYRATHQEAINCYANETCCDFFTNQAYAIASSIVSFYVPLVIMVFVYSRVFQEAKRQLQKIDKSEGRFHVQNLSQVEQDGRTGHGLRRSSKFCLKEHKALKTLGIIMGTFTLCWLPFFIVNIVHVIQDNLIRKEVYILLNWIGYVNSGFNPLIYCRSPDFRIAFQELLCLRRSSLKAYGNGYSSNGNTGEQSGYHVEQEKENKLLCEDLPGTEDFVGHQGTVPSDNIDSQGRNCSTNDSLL

CYP450, 2C19 = details: Ricerca radioligand binding/enzyme panel plus CYP450, at 10 µM, active compounds read high
Calcium Channel L-Type = details: Ricerca radioligand binding/enzyme panel plus CYP450, Dihydropyridine, at 10 µM, active compounds read high
Cannabinoid CB1 = details: Ricerca radioligand binding/enzyme panel plus CYP450, at 10 µM, active compounds read high
[5] = target: Cytochrome P450 1A2 (Homo sapiens) (UniProt P05177); details: Ricerca radioligand binding/enzyme panel plus CYP450; CYP450, 1A2; at 10 µM; active compounds read high
Sequence of Cytochrome P450 1A2 (Homo sapiens) (P05177 whole entry, looked up): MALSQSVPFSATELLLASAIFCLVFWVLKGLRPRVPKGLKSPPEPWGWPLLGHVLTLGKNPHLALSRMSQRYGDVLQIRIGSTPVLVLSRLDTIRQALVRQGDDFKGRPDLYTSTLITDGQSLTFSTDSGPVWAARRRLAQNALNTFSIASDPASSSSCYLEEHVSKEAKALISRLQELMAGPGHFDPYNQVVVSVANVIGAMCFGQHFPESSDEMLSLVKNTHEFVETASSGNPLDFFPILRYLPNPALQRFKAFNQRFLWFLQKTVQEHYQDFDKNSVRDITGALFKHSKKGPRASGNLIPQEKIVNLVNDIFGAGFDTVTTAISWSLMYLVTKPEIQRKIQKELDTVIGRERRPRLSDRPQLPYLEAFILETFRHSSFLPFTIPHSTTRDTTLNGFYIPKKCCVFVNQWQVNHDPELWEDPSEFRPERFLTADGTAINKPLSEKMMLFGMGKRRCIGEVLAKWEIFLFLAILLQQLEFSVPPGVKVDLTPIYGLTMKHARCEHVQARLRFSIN

[6] = target: Cytochrome P450 2C9 (Homo sapiens) (UniProt P11712); details: Ricerca radioligand binding/enzyme panel plus CYP450; CYP450, 2C9; at 10 µM; active compounds read high
Sequence of Cytochrome P450 2C9 (Homo sapiens) (P11712 whole entry, looked up): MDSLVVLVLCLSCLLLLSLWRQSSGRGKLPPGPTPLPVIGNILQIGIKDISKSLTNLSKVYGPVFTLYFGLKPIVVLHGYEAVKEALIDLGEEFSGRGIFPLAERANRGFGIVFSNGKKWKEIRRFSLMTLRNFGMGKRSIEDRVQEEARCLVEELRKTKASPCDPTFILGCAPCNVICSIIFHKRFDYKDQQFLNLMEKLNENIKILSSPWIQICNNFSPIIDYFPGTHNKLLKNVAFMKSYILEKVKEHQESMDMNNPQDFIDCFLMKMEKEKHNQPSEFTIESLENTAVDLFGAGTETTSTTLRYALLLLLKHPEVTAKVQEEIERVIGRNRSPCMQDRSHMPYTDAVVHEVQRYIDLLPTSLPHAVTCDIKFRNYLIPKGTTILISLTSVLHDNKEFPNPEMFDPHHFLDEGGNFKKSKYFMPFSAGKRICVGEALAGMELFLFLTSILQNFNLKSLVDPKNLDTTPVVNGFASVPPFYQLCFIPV

[7] = target: Cytochrome P450 2D6 (Homo sapiens) (UniProt P10635); details: Ricerca radioligand binding/enzyme panel plus CYP450; CYP450, 2D6; at 10 µM; active compounds read high
Sequence of Cytochrome P450 2D6 (Homo sapiens) (P10635 whole entry, looked up): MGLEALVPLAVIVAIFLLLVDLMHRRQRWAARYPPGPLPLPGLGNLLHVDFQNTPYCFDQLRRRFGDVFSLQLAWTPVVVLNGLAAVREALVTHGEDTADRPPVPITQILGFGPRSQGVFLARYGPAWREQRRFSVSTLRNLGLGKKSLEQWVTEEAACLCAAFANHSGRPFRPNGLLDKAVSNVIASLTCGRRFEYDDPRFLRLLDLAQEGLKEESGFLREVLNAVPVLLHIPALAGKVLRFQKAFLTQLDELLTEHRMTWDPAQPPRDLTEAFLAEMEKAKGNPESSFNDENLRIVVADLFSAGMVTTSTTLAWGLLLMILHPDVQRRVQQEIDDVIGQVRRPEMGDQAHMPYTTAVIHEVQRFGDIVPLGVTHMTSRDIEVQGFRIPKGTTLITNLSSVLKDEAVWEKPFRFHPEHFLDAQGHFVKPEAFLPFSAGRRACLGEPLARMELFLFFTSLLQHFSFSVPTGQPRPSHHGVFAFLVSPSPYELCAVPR

[8] = target: Cytochrome P450 3A4 (Homo sapiens) (UniProt P08684); details: Ricerca radioligand binding/enzyme panel plus CYP450; CYP450, 3A4; at 10 µM; active compounds read high
Sequence of Cytochrome P450 3A4 (Homo sapiens) (P08684 whole entry, looked up): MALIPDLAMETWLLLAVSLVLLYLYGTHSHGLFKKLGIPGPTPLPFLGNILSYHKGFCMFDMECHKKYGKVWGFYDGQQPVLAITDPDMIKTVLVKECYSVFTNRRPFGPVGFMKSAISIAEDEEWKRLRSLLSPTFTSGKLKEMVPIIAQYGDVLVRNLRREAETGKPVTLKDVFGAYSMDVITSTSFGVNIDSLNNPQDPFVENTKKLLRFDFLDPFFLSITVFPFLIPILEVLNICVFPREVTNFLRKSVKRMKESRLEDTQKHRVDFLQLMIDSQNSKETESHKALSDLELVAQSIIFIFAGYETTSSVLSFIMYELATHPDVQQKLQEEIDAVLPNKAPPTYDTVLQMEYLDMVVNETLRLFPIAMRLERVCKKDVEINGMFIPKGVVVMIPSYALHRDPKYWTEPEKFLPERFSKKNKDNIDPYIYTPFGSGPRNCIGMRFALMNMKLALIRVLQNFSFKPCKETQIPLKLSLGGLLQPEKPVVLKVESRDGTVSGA

[9] = target: D(1A) dopamine receptor (Homo sapiens) (UniProt P21728); details: Ricerca radioligand binding/enzyme panel plus CYP450; Dopamine D1; at 10 µM; active compounds read high
Sequence of D(1A) dopamine receptor (Homo sapiens) (P21728 whole entry, looked up): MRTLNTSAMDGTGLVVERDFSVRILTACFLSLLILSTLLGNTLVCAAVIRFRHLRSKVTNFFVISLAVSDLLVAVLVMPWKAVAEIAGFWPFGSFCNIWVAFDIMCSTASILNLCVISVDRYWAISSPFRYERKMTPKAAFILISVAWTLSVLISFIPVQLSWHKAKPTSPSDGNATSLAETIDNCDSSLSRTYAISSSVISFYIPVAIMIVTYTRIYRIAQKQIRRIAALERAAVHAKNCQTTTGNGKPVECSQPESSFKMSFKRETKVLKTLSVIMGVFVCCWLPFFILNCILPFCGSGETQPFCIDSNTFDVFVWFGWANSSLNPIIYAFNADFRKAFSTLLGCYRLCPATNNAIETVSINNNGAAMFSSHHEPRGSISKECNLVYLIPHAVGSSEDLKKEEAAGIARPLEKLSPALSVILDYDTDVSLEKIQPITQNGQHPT

Dopamine D2S = details: Ricerca radioligand binding/enzyme panel plus CYP450, at 10 µM, active compounds read high
GABAA = details: Central, at 10 µM, active compounds read high
Glutamate NMDA = details: Ricerca radioligand binding/enzyme panel plus CYP450, Phencyclidine, at 10 µM, active compounds read high
Histamine H1 = details: Ricerca radioligand binding/enzyme panel plus CYP450, at 10 µM, active compounds read high
[10] = target: Muscarinic acetylcholine receptor M2 (Homo sapiens) (UniProt P08172); details: Ricerca radioligand binding/enzyme panel plus CYP450, at 10 µM, active compounds read high
Sequence of Muscarinic acetylcholine receptor M2 (Homo sapiens) (P08172 whole entry, looked up): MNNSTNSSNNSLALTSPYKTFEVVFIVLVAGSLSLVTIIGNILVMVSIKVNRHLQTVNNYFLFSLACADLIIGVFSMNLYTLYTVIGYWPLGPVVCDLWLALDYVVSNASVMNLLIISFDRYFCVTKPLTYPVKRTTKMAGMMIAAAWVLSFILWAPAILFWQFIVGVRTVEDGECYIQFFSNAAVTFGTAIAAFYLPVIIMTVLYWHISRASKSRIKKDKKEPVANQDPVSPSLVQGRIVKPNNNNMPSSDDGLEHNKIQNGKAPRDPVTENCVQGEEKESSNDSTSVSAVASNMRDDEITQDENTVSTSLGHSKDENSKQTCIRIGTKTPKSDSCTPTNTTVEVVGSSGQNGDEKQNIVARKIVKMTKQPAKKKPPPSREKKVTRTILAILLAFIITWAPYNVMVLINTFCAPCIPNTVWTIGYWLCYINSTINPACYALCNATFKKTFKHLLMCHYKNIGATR

[11] = target: Muscarinic acetylcholine receptor M3 (Homo sapiens) (UniProt P20309); details: Ricerca radioligand binding/enzyme panel plus CYP450, at 10 µM, active compounds read high
Sequence of Muscarinic acetylcholine receptor M3 (Homo sapiens) (P20309 whole entry, looked up): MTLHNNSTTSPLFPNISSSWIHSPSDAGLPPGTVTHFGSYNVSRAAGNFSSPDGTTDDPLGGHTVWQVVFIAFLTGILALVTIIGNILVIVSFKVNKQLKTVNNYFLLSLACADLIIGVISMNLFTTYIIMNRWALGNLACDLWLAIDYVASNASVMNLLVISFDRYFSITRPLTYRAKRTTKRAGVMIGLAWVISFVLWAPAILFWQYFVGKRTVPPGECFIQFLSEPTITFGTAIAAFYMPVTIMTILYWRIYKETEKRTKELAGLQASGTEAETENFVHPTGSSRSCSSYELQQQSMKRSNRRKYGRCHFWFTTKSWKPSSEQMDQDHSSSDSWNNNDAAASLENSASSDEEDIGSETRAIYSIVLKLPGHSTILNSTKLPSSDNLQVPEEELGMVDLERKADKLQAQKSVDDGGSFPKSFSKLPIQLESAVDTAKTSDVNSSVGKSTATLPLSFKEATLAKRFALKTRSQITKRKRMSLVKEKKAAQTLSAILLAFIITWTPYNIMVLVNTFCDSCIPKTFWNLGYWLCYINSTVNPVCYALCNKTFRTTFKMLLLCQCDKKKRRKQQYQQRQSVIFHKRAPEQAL

Nicotinic Acetylcholine = details: Ricerca radioligand binding/enzyme panel plus CYP450, at 10 µM, active compounds read high
Opiate mu (OP3, MOP) = details: Ricerca radioligand binding/enzyme panel plus CYP450, at 10 µM, active compounds read high
Prostanoid EP4 = details: Ricerca radioligand binding/enzyme panel plus CYP450, at 10 µM, active compounds read high
Sigma 1 = details: Ricerca radioligand binding/enzyme panel plus CYP450, at 10 µM, active compounds read high
Sodium Channel, Site 2 = details: Ricerca radioligand binding/enzyme panel plus CYP450, at 10 µM, active compounds read high
[12] = system: Transporter, Norepinephrine (NET); details: Ricerca radioligand binding/enzyme panel plus CYP450, at 10 µM, active compounds read high
[13] = target: Voltage-gated inwardly rectifying potassium channel KCNH2 (Homo sapiens) (UniProt Q12809); details: Ricerca radioligand binding/enzyme panel plus CYP450; Potassium Channel hERG; at 10 µM; active compounds read high

Clc1ccc(OCCOc2ccc(Br)nc2Br)c(Cl)c1
inhibition [1]: 27% (inactive)
inhibition (Adenosine A1): 7% (inactive)
inhibition (Adenosine A2A): 10% (inactive)
inhibition (Adrenergic alpha1A): 28% (inactive)
inhibition (Adrenergic alpha1B): 26% (inactive)
inhibition (Adrenergic beta1): 12% (inactive)
inhibition [2]: 9% (inactive)
inhibition [3]: 0% (inactive)
inhibition [4]: 7% (inactive)
inhibition (CYP450, 2C19): 97%
inhibition (Calcium Channel L-Type): 51%
inhibition (Cannabinoid CB1): 31% (inactive)
inhibition [5]: 58%
inhibition [6]: 3% (inactive)
inhibition [7]: 2% (inactive)
inhibition [8]: -5% (inactive)
inhibition [9]: 18% (inactive)
inhibition (Dopamine D2S): 25% (inactive)
inhibition (GABAA; Ricerca radioligand binding/enzyme panel plus CYP450, Flunitrazepam): 2% (inactive)
inhibition (GABAA; Ricerca radioligand binding/enzyme panel plus CYP450, Muscimol): 1% (inactive)
inhibition (Glutamate NMDA): -5% (inactive)
inhibition (Histamine H1): 15% (inactive)
inhibition [10]: 2% (inactive)
inhibition [11]: -3% (inactive)
inhibition (Nicotinic Acetylcholine): -4% (inactive)
inhibition (Opiate mu (OP3, MOP)): 9% (inactive)
inhibition (Prostanoid EP4): -7% (inactive)
inhibition (Sigma 1): 22% (inactive)
inhibition (Sodium Channel, Site 2): 32% (inactive)
inhibition [12]: 68%
inhibition [13]: -1% (inactive)
